Experimental data from publication PMC11011685, “4-(Azolyl)-Benzamidines as a Novel Chemotype for ASIC1a Inhibitors” (International Journal of Molecular Sciences, 2024).
Each block holds one substance with its values, some of them ahead of it.

Experiments:
Format in all cases: cell-based
human ASIC1a (hASIC1a) [1] = molecular target: T1, human ASIC1a (hASIC1a) (Homo sapiens, UniProt P78348); test: whole-cell patch clamp, residual current I/Io at […] (weak); details: 100 µM
T1 construct: gene ASIC1; native hASIC1a endogenously expressed in HEK 293 cells
T1 sequence (P78348 1-528): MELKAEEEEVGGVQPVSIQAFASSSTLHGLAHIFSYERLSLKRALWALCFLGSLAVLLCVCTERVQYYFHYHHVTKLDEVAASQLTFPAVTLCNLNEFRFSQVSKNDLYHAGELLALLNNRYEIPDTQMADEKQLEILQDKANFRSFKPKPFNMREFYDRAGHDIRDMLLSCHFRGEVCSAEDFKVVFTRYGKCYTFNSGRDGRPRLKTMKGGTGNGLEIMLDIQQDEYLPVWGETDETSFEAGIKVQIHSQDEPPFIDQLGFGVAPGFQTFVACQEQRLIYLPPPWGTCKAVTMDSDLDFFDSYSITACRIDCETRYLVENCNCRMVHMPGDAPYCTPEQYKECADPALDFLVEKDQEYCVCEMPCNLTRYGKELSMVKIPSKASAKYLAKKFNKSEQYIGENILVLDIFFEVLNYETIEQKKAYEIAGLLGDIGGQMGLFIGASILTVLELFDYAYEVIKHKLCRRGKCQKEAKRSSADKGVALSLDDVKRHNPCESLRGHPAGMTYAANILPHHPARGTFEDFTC

human ASIC1a (hASIC1a) [2] = molecular target: T1, human ASIC1a (hASIC1a); test: whole-cell patch clamp, pH […] to […] evoked current, dose-response
human ASIC1a (hASIC1a) [3] = molecular target: T1, human ASIC1a (hASIC1a); test: whole-cell patch clamp, residual current I/Io at […] (recovery […]); details: 100 µM
human ASIC1a (hASIC1a) [4] = molecular target: T1, human ASIC1a (hASIC1a); test: whole-cell patch clamp, residual current I/Io at […]; details: 100 µM

I/Io (Mean ± SD), % (human ASIC1a (hASIC1a) [1]): 65 ± 3 % I/Io at 100 µM
Substance: EN300-2324118

I/Io (Mean ± SD), % (human ASIC1a (hASIC1a) [3]): 7 ± 2 % I/Io at 100 µM
Substance: EN300-256317

I/Io (Mean ± SD), % (human ASIC1a (hASIC1a) [1]): 76 ± 7 % I/Io at 100 µM
Substance: EN300-256318

The remaining lines, values behind:

Substance: EN300-257539
IC50 (human ASIC1a (hASIC1a) [2]): 3.5 ± 0.5 µM

Substance: EN300-268551
IC50 (human ASIC1a (hASIC1a) [2]): 25 ± 2 µM

Substance: EN300-257412
I/Io (Mean ± SD), % (human ASIC1a (hASIC1a) [4]): 37 ± 8 % I/Io at 100 µM

Substance: EN300-262584
I/Io (Mean ± SD), % (human ASIC1a (hASIC1a) [4]): 19 ± 8 % I/Io at 100 µM

Substance: EN300-264105
IC50 (human ASIC1a (hASIC1a) [2]): 6 ± 0.6 µM
